Assay in all cases: combination Emax (second highest fraction inhibited in the dose matrix, 72 h); higher = more inhibition; extreme values may be limits of the assay
Experiment [1] deals with 8-MG-BA (Glioblastoma). A digest of the protocol: (§1)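 After 24 hours at 37°C and 5% CO2 in 1536-well plates, cells in DMEM/F12 or RPMI plus 10% FBS received two-drug dose matrices for 72 hours. Viability came from CellTiter-Glo 2.0 luminescence and was scaled as inhibition, anchored at 0 by vehicle wells and at 1 by blank wells. Combination Emax is taken as the second-highest inhibition in the matrix, and Bliss excess as the observed combination effect less EA + EB − EA·EB, with EA and EB the single-agent effects.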

The test system of experiment [2] is A498 (Kidney Carcinoma). A digest of the protocol:
as §1

Experiment [3] concerns A549 (Lung Adenocarcinoma). The procedure, abridged: as §1
Experiment [4] has as its system BICR22 (Oral Cavity Carcinoma). A digest of the protocol:
as §1

Experiment [5] relates to CAL-29 (Bladder Carcinoma). The procedure, abridged: as §1
The subject of experiment [6] is CAPAN-2 (Pancreatic Carcinoma). The procedure, abridged: as §1
In experiment [7] the test system is CCK-81 (Colorectal Carcinoma). A digest of the protocol: as §1
The subject of experiment [8] is COR-L311 (Small Cell Lung Carcinoma). The procedure, abridged:
as §1

In experiment [9] the test system is GI-ME-N (Neuroblastoma). A digest of the protocol:
as §1

Experiment [10] has as its system Hs-445 (Non-Cancerous). A digest of the protocol:
as §1

Experiment [11] relates to IGR-37 (Melanoma). A digest of the protocol:
as §1

The subject of experiment [12] is JSC-1 (B-Cell Non-Hodgkin's Lymphoma). A digest of the protocol:
as §1

The test system of experiment [13] is KARPAS-422 (B-Cell Non-Hodgkin's Lymphoma). The procedure, abridged: as §1
Experiment [14] concerns LN-405 (Glioblastoma). The procedure, abridged:
as §1

Experiment [15] relates to MDST8 (Colorectal Carcinoma). A digest of the protocol:
as §1

The subject of experiment [16] is NCI-H1581 (Non-Small Cell Lung Carcinoma). A digest of the protocol:
as §1

The test system of experiment [17] is PA-1 (Ovarian Carcinoma). A digest of the protocol:
as §1

The subject of experiment [18] is PANC-10-05 (Pancreatic Carcinoma). The procedure, abridged:
as §1

In experiment [19] the test system is TT2609-C02 (Thyroid Gland Carcinoma). A digest of the protocol:
as §1

Experiment [20] relates to U-2-OS (Osteosarcoma). A digest of the protocol: as §1

For the compound `Cc1c2c(nn1C)CSCc1cc(n(C)n1)CSc1cc(c3ccccc3c1)OCCCc1c(C(=O)O)n(C)c3c-2c(Cl)ccc13` [AZD5991] + CC1(C)CCC(CN2CCN(c3ccc(C(=O)NS(=O)(=O)c4ccc(NCC5CCOCC5)c([N+](=O)[O-])c4)c(Oc4cnc5[nH]ccc5c4)c3)CC2)=C(c2ccc(Cl)cc2)C1 [Venetoclax] (first compound max 1 µM, 7x7, partner max 1 µM), the “combination Emax” value was 0.855 in [1]; 0.361 in experiment [2]; 0.216 in experiment [3]; 0.727 in experiment [4]; 0.391 in experiment [5]; 0.153 in experiment [6]. In addition, the “combination Emax” value in [7] came to 0.871; in experiment [8], 0.938; in [9], 0.354; in experiment [10] it was 0.962; in [11] it was 0.282; in experiment [12], 1. Moreover, the “combination Emax” value in [13] stood at 1; in experiment [14], 0.425; in experiment [15], 0.228; in experiment [16], 0.968; in experiment [17] it was 0.964; in experiment [18], 0.188. In addition, the “combination Emax” value in experiment [19] turned out to be 0.178; in [20], 0.271.
As to `Cc1c2c(nn1C)CSCc1cc(n(C)n1)CSc1cc(c3ccccc3c1)OCCCc1c(C(=O)O)n(C)c3c-2c(Cl)ccc13` [AZD5991] + CCN(CCO)CCCOc1ccc2c(Nc3cc(CC(=O)Nc4cccc(F)c4)[nH]n3)ncnc2c1 [AZD2811] (first compound max 1 µM, 7x7, partner max 1 µM), the “combination Emax” value in [1] amounted to 0.836; in experiment [2], 0.352; in [3] it was 0.41; in [4] it was 0.675; in [5], 0.739; in experiment [6], 0.239. For the same compound, the “combination Emax” value turned out to be 0.875 in [7]; 0.906 in experiment [8]; 0.354 in [9]; 0.968 in experiment [10]; 0.24 in experiment [11]; 1 in experiment [12]. The “combination Emax” value in experiment [13] was 0.981; in experiment [14], 0.437; in experiment [15], 0.362; in experiment [16], 1; in experiment [17], 0.932; in experiment [18], 0.303. Moreover, the results for the “combination Emax” value in [19] and in experiment [20] were 0.456 and 0.307, respectively.
As for `Cc1c2c(nn1C)CSCc1cc(n(C)n1)CSc1cc(c3ccccc3c1)OCCCc1c(C(=O)O)n(C)c3c-2c(Cl)ccc13` [AZD5991] + CN(C)CCCOc1ccc(-c2ccc3ncc4c(c3c2)n(C2CCOCC2)c(=O)n4C)cn1 [AZD0156] (first compound max 1 µM, 7x7, partner max 1 µM), the “combination Emax” value came to 0.586 in [1]; 0.392 in [2]; 0.323 in experiment [3]; 0.323 in experiment [4]; 0.545 in experiment [5]; 0.276 in [6]. For the same compound, the “combination Emax” value in experiment [7] is 0.88; in experiment [8] it was 0.433; in experiment [9], 0.307; in experiment [10] it was 0.949; in [11], 0.282; in experiment [12], 1. The “combination Emax” value in experiment [13] came out at 0.982; in [14], 0.376; in experiment [15], 0.242; in experiment [16], 0.976; in [17] it was 0.855; in experiment [18] it was 0.334. In addition, the “combination Emax” value in experiment [19] amounted to 0.212; in [20], 0.263.
Regarding `Cc1c2c(nn1C)CSCc1cc(n(C)n1)CSc1cc(c3ccccc3c1)OCCCc1c(C(=O)O)n(C)c3c-2c(Cl)ccc13` [AZD5991] + C[C@@H]1COCCN1C2=NC(=NC(=C2)C3(CC3)[S@](=N)(=O)C)C4=C5C=CNC5=NC=C4 [AZD6738] (first compound max 1 µM, 7x7, partner max 10 µM), the “combination Emax” value in experiment [1] is 0.961; in experiment [2] it was 0.621; in experiment [3], 0.726; in experiment [4] it was 0.846; in experiment [5], 0.897; in experiment [6], 0.35. Further, the “combination Emax” value in [7] stood at 0.979; in [8] it was 0.752; in [9] it was 0.431; in experiment [10], 1; in [11], 0.848; in [12] it was 1. The “combination Emax” value in [13] stood at 1; in experiment [14], 0.668; in experiment [15], 0.78; in [16], 1; in experiment [17], 0.967; in experiment [18], 0.488. The “combination Emax” value in experiment [19] was 0.392; in experiment [20], 0.599.
Consider `Cc1c2c(nn1C)CSCc1cc(n(C)n1)CSc1cc(c3ccccc3c1)OCCCc1c(C(=O)O)n(C)c3c-2c(Cl)ccc13` [AZD5991] + C[C@@H](Nc1cc(F)cc(F)c1)c1cc(C(=O)N(C)C)cc2c(=O)cc(N3CCOCC3)oc12 [AZD8186] (first compound max 1 µM, 7x7, partner max 3 µM), for which the “combination Emax” value in experiment [1] is 0.734; in experiment [2], 0.742; in [3] it was 0.476; in experiment [4], 0.537; in [5], 0.421; in [6] it was 0.252. The “combination Emax” value in [7] was determined as 0.899; in experiment [8] it was 0.508; in experiment [9], 0.301; in [10] it was 0.929; in [11], 0.325; in experiment [12] it was 1. Moreover, the “combination Emax” value was determined as 0.94 in experiment [13]; 0.572 in [14]; 0.265 in [15]; 0.991 in experiment [16]; 0.964 in experiment [17]; 0.311 in experiment [18]. In addition, the “combination Emax” value in experiment [19] was found to be 0.303; in experiment [20], 0.238.
With `Cc1c2c(nn1C)CSCc1cc(n(C)n1)CSc1cc(c3ccccc3c1)OCCCc1c(C(=O)O)n(C)c3c-2c(Cl)ccc13` [AZD5991] + Cc1cc2ncnn2cc1Nc1ncc2c(n1)n(C1CCOCC1)c(=O)n2C [AZD7648] (first compound max 1 µM, 7x7, partner max 10 µM), the “combination Emax” value in experiment [1] is 0.646; in [2] it was 0.423; in experiment [3] it was 0.461; in experiment [4] it was 0.499; in experiment [5] it was 0.43; in experiment [6], 0.291. Moreover, the “combination Emax” value in experiment [7] worked out at 0.933; in [8], 0.343; in experiment [9] it was 0.228; in experiment [10] it was 0.942; in [11] it was 0.25; in [12], 1. Further, the “combination Emax” value turned out to be 1 in [13]; 0.37 in experiment [14]; 0.34 in [15]; 1 in experiment [16]; 0.906 in experiment [17]; 0.404 in experiment [18]. The entries for the “combination Emax” value in [19] and in experiment [20] were 0.205 and 0.261, respectively.

The values above are taken from the supplement of paper PMC11061612.
